# In paper PMC7281280, “Is the Way to Fight Cancer Paved with Gold? Metal-Based Carbene Complexes with Multiple and Fascinating Biological Features” (Pharmaceuticals, 2020):
# Tests used:
# [1] = molecular target: T1, human topoisomerase I (hTopo I) (Homo sapiens, UniProt P11387); test: Human topoisomerase I relaxation assay; assay type: biochemical; settings: 1 μM
# T1 construct: purchased TopoGEN, Port Orange, FL, USA
# T1 sequence (P11387 1-765): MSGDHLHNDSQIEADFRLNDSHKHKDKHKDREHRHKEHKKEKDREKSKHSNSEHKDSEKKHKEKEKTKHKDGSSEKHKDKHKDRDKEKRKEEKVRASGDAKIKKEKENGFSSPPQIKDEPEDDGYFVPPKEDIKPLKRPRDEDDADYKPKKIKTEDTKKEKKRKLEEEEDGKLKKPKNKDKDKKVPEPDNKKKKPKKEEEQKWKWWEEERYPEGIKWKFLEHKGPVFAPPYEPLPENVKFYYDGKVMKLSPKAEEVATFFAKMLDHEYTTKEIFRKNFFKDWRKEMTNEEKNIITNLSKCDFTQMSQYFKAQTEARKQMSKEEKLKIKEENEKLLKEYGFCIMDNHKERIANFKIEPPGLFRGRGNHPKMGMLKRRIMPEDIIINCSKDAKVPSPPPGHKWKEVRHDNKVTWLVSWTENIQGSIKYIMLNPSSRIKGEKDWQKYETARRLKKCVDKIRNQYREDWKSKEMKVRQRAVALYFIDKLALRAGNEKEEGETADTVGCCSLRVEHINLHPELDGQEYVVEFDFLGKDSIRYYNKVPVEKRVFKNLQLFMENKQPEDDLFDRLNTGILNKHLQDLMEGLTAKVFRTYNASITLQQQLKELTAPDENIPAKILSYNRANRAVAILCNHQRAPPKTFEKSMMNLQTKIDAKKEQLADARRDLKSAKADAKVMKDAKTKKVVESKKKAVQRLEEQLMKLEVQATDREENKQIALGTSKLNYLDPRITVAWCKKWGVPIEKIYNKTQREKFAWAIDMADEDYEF
# Method: Topoisomerases are essential enzymes involved in DNA metabolism, because of their ability to cause temporary DNA strand breakage, and tightly involved, if overexpressed, in cancer development.
# hTopo I relaxation assays have been performed in a final volume of […], as reported by Iacopetta et al., incubating […] of supercoiled plasmid pHOT1 in Tris-EDTA (TE) buffer (TopoGEN, Port Orange, FL, USA) with tested compounds and recombinant hTopo I (2 units) (TopoGEN, Port Orange, FL, USA) for 1h at 37 °C. The obtained solution has been loaded in a 1% agarose gel containing 1× Tris-acetate-EDTA (TAE) buffer without ethidium bromide (EB). Agarose gel has been stained using 1× TAE buffer with EB ([…]) for 30 min and after washed with distilled water for 15 min. At the end, it has been visualized by using a ultraviolet (UV) transilluminator. The experiment was performed in triplicate.
# Figure 7 hTopoI assay.
# [2] = molecular target: T2, human topoisomerase II (hTopo II) (Homo sapiens, UniProt P11388); test: Human topoisomerase II decatenation assay; assay type: biochemical; settings: 1 μM
# T2 construct: purchased topoGEN, Port Orange, FL, USA
# Method: Decatenated and linear kDNA (Figure 8, lanes 1 and 2) are used as markers.
# hTopo II decatenation assays were performed in a final volume of […], as reported by Iacopetta et al., using […] of kinetoplast DNA (kDNA) (topoGEN, Port Orange, FL, USA), tested compounds and 3 units of hTopo II (topoGEN, Port Orange, FL, USA). The reaction products were loaded in an agarose gel with EB. At the end, the gel was washed with distilled water and analyzed using a UV transilluminator. The experiment was repeated three times.
# Lane 1 and 2, decatenated and linear kDNA, respectively.
# tubulin = test: In vitro tubulin-polymerization assay (turbidity at 350 nm); assay type: biochemical; settings: 10 µM
# Method: Tubulin-polymerization inihibition was measured using in vitro Tubulin-Polymerization Assay Kit purchased fromEMD Millipore Corporation. Polymerization reactions occur in 70 µL final volumes, of which 60 µL is the 60 µM tubulin in 1 × PB-GTP and 10 µL is the test substance dissolved in 1 × PB-GTP. […] These reactives were combined in 96-well plate on ice. After the plate was transferred into the spectrophotometer pre-warmed at 37 °C and the turbidity variation was measured every 30 s at 350 nm for 90 min. The plate was shaked for 10 s before each measurement. Turbidity (absorbance) readings were used to calculate the extent of polymerization [% inhibition = (1−A350 sample/A350 control) × 100].
# Figure 4 Tubulin-polymerization assay. […] Two positive control molecules, Paclitaxel and Vinblastine, were used as tubulin-stabilizing and tubulin-destabilizing agents, respectively. DMSO was used as a negative control. Assembly of tubulin into microtubules was determined by measuring the turbidity at 350 nm for 3600 s at 37 °C. All the compounds were used at a concentration of 10 μM.
# HeLa cells = test: Immunofluorescence of microtubules, HeLa; assay type: cell-based, human; settings: at IC50 value, 24 h
# Method: Cells were grown on glass coverslips in full media, then serum-deprived for 24 h and exposed to compounds for 24 h (concentration equal to its IC50 value). Then, the cells after PBS-washed, were fixed with cold methanol (15 min/−20 °C) and incubated with primary antibody, diluted in blocking solution (4 °C/overnight), as previously described. The mouse anti-β-Actin (69879) and the rabbit anti-β tubulin (9104) were purchased from Santa Cruz Biotechnology and used at 1:100 dilution. Coverslips were then washed 3 times with PBS, then fixed cells were incubated with the secondary antibody Alexa Fluor® 568 conjugate goat-anti-mouse and Alexa Fluor® 488 conjugate goat-anti-rabbit (1:500, Thermo Fisher Scientific, Waltham, MA, USA). Nuclei were stained using DAPI (Sigma–Aldrich, Mila, Italy) for 10 min at a concentration of 0.2 μg/mL then washed 3 times with PBS. Fluorescence was detected using a fluorescence microscope (Leica DM 6000). LAS-X software was used to acquire and process all images.
# Figure 6 Immunofluorescence studies. HeLa cells were treated with AuL4, Vinblastine, Paclitaxel (used at their IC50 values) or with a vehicle (CTRL) for 24 h. After treatment, the cells were methanol fixed, incubated with primary and secondary antibodies, stained with DAPI and observed and imaged under the inverted fluorescence microscope at 20× magnification (see Materials and methods). […] Panels A: DAPI, excitation/emission wavelength 350 nm/460 nm; panels B: β-tubulin (Alexa Fluor® 488) excitation/emission wavelength 490 nm/515 nm; panels C show a merge. Representative fields are shown.
# T2 sequence (P11388 whole entry): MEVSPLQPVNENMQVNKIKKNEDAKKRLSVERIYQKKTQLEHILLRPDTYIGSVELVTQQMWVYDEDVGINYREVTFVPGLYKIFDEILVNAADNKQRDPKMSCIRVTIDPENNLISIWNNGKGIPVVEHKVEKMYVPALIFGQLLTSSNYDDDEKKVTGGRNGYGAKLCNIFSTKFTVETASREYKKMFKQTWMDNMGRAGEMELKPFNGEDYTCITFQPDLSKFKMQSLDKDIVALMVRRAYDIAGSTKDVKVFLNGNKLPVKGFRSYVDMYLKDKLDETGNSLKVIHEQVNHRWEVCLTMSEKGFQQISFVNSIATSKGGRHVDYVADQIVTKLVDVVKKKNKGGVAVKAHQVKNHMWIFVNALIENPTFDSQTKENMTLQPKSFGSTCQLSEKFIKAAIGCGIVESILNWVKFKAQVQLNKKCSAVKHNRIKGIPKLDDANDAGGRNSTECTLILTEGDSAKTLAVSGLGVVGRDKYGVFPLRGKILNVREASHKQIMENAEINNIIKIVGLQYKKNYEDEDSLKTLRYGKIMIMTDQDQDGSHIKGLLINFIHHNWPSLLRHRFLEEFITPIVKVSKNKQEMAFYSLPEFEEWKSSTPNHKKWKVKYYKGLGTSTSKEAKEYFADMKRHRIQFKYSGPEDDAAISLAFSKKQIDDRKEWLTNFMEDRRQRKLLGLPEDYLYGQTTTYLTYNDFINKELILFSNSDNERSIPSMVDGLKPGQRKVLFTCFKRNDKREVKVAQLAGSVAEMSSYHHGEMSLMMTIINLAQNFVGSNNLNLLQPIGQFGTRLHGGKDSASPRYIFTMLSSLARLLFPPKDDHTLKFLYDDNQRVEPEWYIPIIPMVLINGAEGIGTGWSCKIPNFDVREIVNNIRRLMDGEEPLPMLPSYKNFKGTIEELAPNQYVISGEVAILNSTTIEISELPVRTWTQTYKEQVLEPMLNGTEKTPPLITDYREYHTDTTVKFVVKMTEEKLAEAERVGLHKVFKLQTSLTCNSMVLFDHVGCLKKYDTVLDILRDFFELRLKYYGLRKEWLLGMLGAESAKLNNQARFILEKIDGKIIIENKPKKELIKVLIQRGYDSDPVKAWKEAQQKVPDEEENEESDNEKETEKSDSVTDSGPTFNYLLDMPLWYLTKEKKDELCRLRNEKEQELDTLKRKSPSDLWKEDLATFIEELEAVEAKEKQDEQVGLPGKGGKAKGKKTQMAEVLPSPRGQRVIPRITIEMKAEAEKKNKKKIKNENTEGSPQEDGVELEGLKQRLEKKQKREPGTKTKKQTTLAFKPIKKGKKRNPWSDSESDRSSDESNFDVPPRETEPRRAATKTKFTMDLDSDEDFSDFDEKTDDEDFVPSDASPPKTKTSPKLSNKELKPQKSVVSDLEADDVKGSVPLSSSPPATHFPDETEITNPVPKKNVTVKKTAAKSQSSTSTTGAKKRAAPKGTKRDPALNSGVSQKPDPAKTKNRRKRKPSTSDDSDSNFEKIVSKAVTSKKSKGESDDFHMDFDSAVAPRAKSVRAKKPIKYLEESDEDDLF
compound,measurement,setting,value
"C[n+]1c(Cl)c(Cl)n(C2CCCC2O)[c]1[Au-][c]1n(C2CCCC2O)c(Cl)c(Cl)[n+]1C.[Cl][Au-][Cl] (racemic) [AuL4, bis-[4,5-dichloro-(N-methyl-N’(cyclopentane-2ol)-imidazole-2-ylidine)gold(I)]^+[dichloro-gold]^−]",inhibition of hTopo I supercoil relaxing activity,[1],totally inhibition
same,inhibition of hTopo II decatenation activity,[2],total blockade of hTopoII activity
same,effect on tubulin-polymerization reaction,tubulin,seems not to hamper the tubulin-polymerization reaction
same,final optical density value at 350 nm (OD350),"tubulin; 37 °C, vehicle (DMSO) about 0.43",slightly higher than that of DMSO reaction
same,"effect on microtubule network, HeLa",HeLa cells,paclitaxel-like behavior
